The values that follow come from patent US10004701B2, “Methods and compositions for treating infection” (UNIVERSITY OF ROCHESTER, priority 2012, dated 2018).

Common to all, as to assay: AK assay 384-well format, Prestwick library screening
The subject of one test is E. coli. The test is classed as cell-based, Escherichia coli. Particulars: 50 μM final drug concentration; for fold induction at 50 µM: Escherichia coli, 3 h; for AK-based Prestwick Library Screening Results, E. coli (fold increase in extracellular AK activity): planktonic.
The next test concerns K. pneumoniae. The test is classed as cell-based, Klebsiella pneumoniae. To be noted: 50 μM final drug concentration; for fold induction at 50 µM: Klebsiella pneumoniae, 3 h; for AK-based Prestwick Library Screening Results, K. pneumoniae (fold increase in extracellular AK activity): planktonic.
The test system of a further test is E. cloacae. The format is cell-based, Enterobacter cloacae. Particulars: 50 μM final drug concentration; for fold induction at 50 µM: Enterobacter cloacae, 3 h; for AK-based Prestwick Library Screening Results, E. cloacae (fold increase in extracellular AK activity): planktonic.
Test [1] deals with A. baumannii strain 98-37-09. The test is classed as cell-based, Acinetobacter baumannii. To be noted: 50 μM final drug concentration; for fold induction at 50 µM: Acinetobacter baumannii, 983709, 3 h; for AK-based Prestwick Library Screening Results, A. baumannii (fold increase in extracellular AK activity): planktonic.
For test [2], the system named is S. aureus strain USA300-0114. The test is classed as cell-based, Staphylococcus aureus. Particulars: 50 μM final drug concentration; for fold induction at 50 µM: Staphylococcus aureus, USA300, 3 h; for AK-based Prestwick Library Screening Results, S. aureus (fold increase in extracellular AK activity): planktonic.
Another test deals with E. faecium. The test is classed as cell-based, Enterococcus faecium. To be noted: 50 μM final drug concentration; for fold induction at 50 µM: Enterococcus faecium, 3 h; for AK-based Prestwick Library Screening Results, E. faecium (fold increase in extracellular AK activity): planktonic.
The next test has as its system P. aeruginosa. The test is classed as cell-based, Pseudomonas aeruginosa. To be noted: 50 μM final drug concentration; for fold induction at 50 µM: Pseudomonas aeruginosa, 3 h; for AK-based Prestwick Library Screening Results, P. aeruginosa (fold increase in extracellular AK activity): planktonic.
The mark [3] stands for this setting: planktonic E. coli, 384-well, cutoff for positive-scoring molecules 3-fold increase, read-out: AK-based Prestwick Library Screening Results: E. coli (increase in extracellular AK activity).
Setting [4] is: planktonic K. pneumoniae, 384-well, cutoff for positive-scoring molecules 3-fold increase, read-out: AK-based Prestwick Library Screening Results: K. pneumoniae (increase in extracellular AK activity).
Setting [5] is: planktonic E. cloacae, 384-well, cutoff for positive-scoring molecules 3-fold increase, read-out: AK-based Prestwick Library Screening Results: E. cloacae (increase in extracellular AK activity).
Setting [6] is: planktonic A. baumannii, 384-well, cutoff for positive-scoring molecules 3-fold increase, read-out: AK-based Prestwick Library Screening Results: A. baumannii (increase in extracellular AK activity).
[7] abbreviates: planktonic S. aureus, 384-well, cutoff for positive-scoring molecules 3-fold increase, read-out: AK-based Prestwick Library Screening Results: S. aureus (increase in extracellular AK activity).
Where [8] appears, read: planktonic E. faecium, 384-well, cutoff for positive-scoring molecules 3-fold increase, read-out: AK-based Prestwick Library Screening Results: E. faecium (increase in extracellular AK activity).
[9] abbreviates: planktonic P. aeruginosa, 384-well, cutoff for positive-scoring molecules 3-fold increase, read-out: AK-based Prestwick Library Screening Results: P. aeruginosa (increase in extracellular AK activity).
Where [10] appears, read: planktonic E. coli, positive cutoff 3-fold increase, read-out: AK-based Prestwick library screening result, E. coli (fold increase in extracellular AK activity).
[11] abbreviates: planktonic K. pneumoniae, positive cutoff 3-fold increase, read-out: AK-based Prestwick library screening result, K. pneumoniae (fold increase in extracellular AK activity).
Where [12] appears, read: planktonic E. cloacae, positive cutoff 3-fold increase, read-out: AK-based Prestwick library screening result, E. cloacae (fold increase in extracellular AK activity).
The mark [13] stands for this setting: planktonic A. baumannii, positive cutoff 3-fold increase, read-out: AK-based Prestwick library screening result, A. baumannii (fold increase in extracellular AK activity).
Where [14] appears, read: planktonic S. aureus, positive cutoff 3-fold increase, read-out: AK-based Prestwick library screening result, S. aureus (fold increase in extracellular AK activity).
Setting [15] is: planktonic E. faecium, positive cutoff 3-fold increase, read-out: AK-based Prestwick library screening result, E. faecium (fold increase in extracellular AK activity).
Where [16] appears, read: planktonic P. aeruginosa, positive cutoff 3-fold increase, read-out: AK-based Prestwick library screening result, P. aeruginosa (fold increase in extracellular AK activity).
[17] abbreviates: cutoff for positive-scoring molecules 3-fold increase.
[18] abbreviates: cutoff for positive 3-fold increase.

Structures can show the parent of a compound that is named as a salt. Where two headings read alike, the source gives them in different places.

With `C[C@@H]1[C@H](O)[C@@H](C)/C=C/C=C/CC/C=C/C=C/C=C/C=C/C(O[C@H]2O[C@H](C)[C@@H](O)[C@H](N)[C@@H]2O)CC2O[C@](O)(CC(O)C(O)CCC(O)CC(O)CC(O)CC(=O)O[C@H]1C)CC(O)C2C(=O)O` (stereo partly shown) [Nystatine], the “AK-based Prestwick Library Screening Results, E. coli (increase in extracellular AK activity)” value in the test on E. coli (planktonic E. coli, […]) was 1.0. In the test on K. pneumoniae (planktonic K. pneumoniae, […]), the “AK-based Prestwick Library Screening Results, K. pneumoniae (increase in extracellular AK activity)” value came out at 0.8. Also, the “AK-based Prestwick Library Screening Results, E. cloacae (increase in extracellular AK activity)” value in the test on E. cloacae (planktonic E. cloacae, […]) is 1.4. The “AK-based Prestwick Library Screening Results, A. baumannii (increase in extracellular AK activity)” value in test [1] (planktonic A. baumannii, […]) is on record as 0.9. Besides, in test [2] (planktonic S. aureus, […]), the “AK-based Prestwick Library Screening Results, S. aureus (increase in extracellular AK activity)” value is 0.7. Further, the “AK-based Prestwick Library Screening Results, E. faecium (increase in extracellular AK activity)” value in the test with E. faecium (planktonic E. faecium, […]) was 0.8. In addition, in the test on P. aeruginosa (planktonic P. aeruginosa, […]), the “AK-based Prestwick Library Screening Results, P. aeruginosa (increase in extracellular AK activity)” value is given as 0.8.

On to `CC1COc2c(N3CCN(C)CC3)c(F)cc3c(=O)c(C(=O)O)cn1c23` (stereo not shown) [Ofloxacin], for which the fold induction at 50 µM with E. coli (setting [3]) came out at 15.7; with K. pneumoniae (setting [4]) it was 1; in the test on E. cloacae (setting [5]) it was 4.1; in test [1] (setting [6]), 3.7; in test [2] (setting [7]), 2.8; with E. faecium (setting [8]), 1.4. Moreover, the fold induction at 50 µM in the test on P. aeruginosa (setting [9]) is 20.

With `CO[C@H]1C[C@H](O[C@H]2[C@H](C)[C@@H](O[C@@H]3O[C@H](C)C[C@H](N(C)C)[C@H]3O)[C@@H](C)C[C@@]3(CO3)C(=O)[C@H](C)[C@@H](O)[C@@H](C)[C@@H](C)OC(=O)[C@@H]2C)O[C@@H](C)[C@@H]1O` [Oleandomycin phosphate], the fold induction at 50 µM came to 1.1 in the test on E. coli (setting [3]); 1 in the test on K. pneumoniae (setting [4]); 1.6 with E. cloacae (setting [5]); 1.1 in test [1] (setting [6]); 3.6 in test [2] (setting [7]); 1 with E. faecium (setting [8]). Moreover, in the test with P. aeruginosa (setting [9]), the fold induction at 50 µM was determined as 1.

`COc1ccc2[nH]c([S+]([O-])Cc3ncc(C)c(OC)c3C)nc2c1` (stereo not shown) [Omeprazole]: the fold induction at 50 µM in the test on E. coli (planktonic E. coli, cutoff for positive-scoring molecules 3-fold increase, read-out: AK-based Prestwick Library Screening Results, E. coli (increase in extracellular AK activity)) was found to be 0.7; with K. pneumoniae (planktonic K. pneumoniae, cutoff for positive-scoring molecules 3-fold increase, read-out: AK-based Prestwick Library Screening Results, K. pneumoniae (increase in extracellular AK activity)) it was 0.6; in the test with E. cloacae (planktonic E. cloacae, cutoff for positive-scoring molecules 3-fold increase, read-out: AK-based Prestwick Library Screening Results, E. cloacae (increase in extracellular AK activity)) it was 0.8; in test [1] (planktonic A. baumannii, cutoff for positive-scoring molecules 3-fold increase, read-out: AK-based Prestwick Library Screening Results, A. baumannii (increase in extracellular AK activity)) it was 0.8; in test [2] (planktonic S. aureus, cutoff for positive-scoring molecules 3-fold increase, read-out: AK-based Prestwick Library Screening Results, S. aureus (increase in extracellular AK activity)) it was 0.2; in the test with E. faecium (planktonic E. faecium, cutoff for positive-scoring molecules 3-fold increase, read-out: AK-based Prestwick Library Screening Results, E. faecium (increase in extracellular AK activity)), 0.8. Moreover, the fold induction at 50 µM in the test on P. aeruginosa (planktonic P. aeruginosa, cutoff for positive-scoring molecules 3-fold increase, read-out: AK-based Prestwick Library Screening Results, P. aeruginosa (increase in extracellular AK activity)) was 0.6.

Take `Cc1nccn1CC1CCc2c(c3ccccc3n2C)C1=O` (stereo not shown) [Ondansetron Hydrochloride]: the fold induction at 50 µM in the test with E. coli (setting [10]) came to 0.7; in the test with K. pneumoniae (setting [11]), 0.6; with E. cloacae (setting [12]), 0.8; in test [1] (setting [13]), 0.7; in test [2] (setting [14]) it was 0.6; in the test on E. faecium (setting [15]), 1.1. Also, the fold induction at 50 µM with P. aeruginosa (setting [16]) is 0.7.

As for `Cc1ncc([N+](=O)[O-])n1CC(O)CCl` (stereo not shown) [Ornidazole], the fold induction at 50 µM with E. coli (384-well format, cutoff for positive-scoring molecules 3-fold increase, read-out: AK-based Prestwick Library Screening Results, E. coli (increase in extracellular AK activity)) is 0.6; in the test on K. pneumoniae (384-well format, cutoff for positive-scoring molecules 3-fold increase, read-out: AK-based Prestwick Library Screening Results, K. pneumoniae (increase in extracellular AK activity)), 0.5; with E. cloacae (384-well format, cutoff for positive-scoring molecules 3-fold increase, read-out: AK-based Prestwick Library Screening Results, E. cloacae (increase in extracellular AK activity)), 0.6; in test [1] (384-well format, cutoff for positive-scoring molecules 3-fold increase, read-out: AK-based Prestwick Library Screening Results, A. baumannii (increase in extracellular AK activity)), 0.6; in test [2] (384-well format, cutoff for positive-scoring molecules 3-fold increase, read-out: AK-based Prestwick Library Screening Results, S. aureus (increase in extracellular AK activity)) it was 0.5; in the test with E. faecium (384-well format, cutoff for positive-scoring molecules 3-fold increase, read-out: AK-based Prestwick Library Screening Results, E. faecium (increase in extracellular AK activity)), 0.9. In the test on P. aeruginosa (384-well format, cutoff for positive-scoring molecules 3-fold increase, read-out: AK-based Prestwick Library Screening Results, P. aeruginosa (increase in extracellular AK activity)), the fold induction at 50 µM was found to be 0.6.

In the case of `CCN(CC)CCc1nc(-c2ccccc2)no1.O=C(O)CC(O)(CC(=O)O)C(=O)O` [Oxalamine citrate salt], in the test on E. coli (setting [17]), the “AK-based Prestwick Library Screening Results, E. coli (fold increase in extracellular AK activity)” value is 0.9. Also, in the test on K. pneumoniae (setting [17]), the “AK-based Prestwick Library Screening Results, K. pneumoniae (fold increase in extracellular AK activity)” value is recorded as 0.7. The “AK-based Prestwick Library Screening Results, E. cloacae (fold increase in extracellular AK activity)” value with E. cloacae (setting [17]) worked out at 1.2. For the same molecule, the “AK-based Prestwick Library Screening Results, A. baumannii (fold increase in extracellular AK activity)” value in test [1] (setting [17]) amounted to 0.8. Besides, the “AK-based Prestwick Library Screening Results, S. aureus (fold increase in extracellular AK activity)” value in test [2] (setting [17]) came to 0.8. Further, in the test with E. faecium (setting [17]), the “AK-based Prestwick Library Screening Results, E. faecium (fold increase in extracellular AK activity)” value is on record as 0.8. For the same molecule, in the test on P. aeruginosa (setting [17]), the “AK-based Prestwick Library Screening Results, P. aeruginosa (fold increase in extracellular AK activity)” value was 0.9.

Turning to `CN1CCCN=C1/C=C/c1cccc(O)c1.O=C(O)c1cc2ccccc2c(Cc2c(O)c(C(=O)O)cc3ccccc23)c1O` [Oxantel pamoate], the “AK-based Prestwick Library Screening Results, E. coli (fold increase in extracellular AK activity)” value in the test on E. coli (setting [18]) worked out at 1.1. Besides, the “AK-based Prestwick Library Screening Results, K. pneumoniae (fold increase in extracellular AK activity)” value in the test on K. pneumoniae (setting [18]) is on record as 1.0. In addition, the “AK-based Prestwick Library Screening Results, E. cloacae (fold increase in extracellular AK activity)” value in the test on E. cloacae (setting [18]) worked out at 1.8. The “AK-based Prestwick Library Screening Results, A. baumannii (fold increase in extracellular AK activity)” value in test [1] (setting [18]) is on record as 1.1. For the same molecule, the “AK-based Prestwick Library Screening Results, S. aureus (fold increase in extracellular AK activity)” value in test [2] (setting [18]) came to 1.3. Further, the “AK-based Prestwick Library Screening Results, E. faecium (fold increase in extracellular AK activity)” value in the test on E. faecium (setting [18]) is 1.0. For the same molecule, the “AK-based Prestwick Library Screening Results, P. aeruginosa (fold increase in extracellular AK activity)” value in the test on P. aeruginosa (setting [18]) was determined as 1.0.

In the case of `O=C(O)CCc1nc(-c2ccccc2)c(-c2ccccc2)o1` [Oxaprozin], the fold induction at 50 µM in the test on E. coli (setting [10]) is 0.6; with K. pneumoniae (setting [11]) it was 0.6; with E. cloacae (setting [12]), 0.9; in test [1] (setting [13]), 0.7; in test [2] (setting [14]), 0.5; in the test with E. faecium (setting [15]), 1.1. The fold induction at 50 µM in the test with P. aeruginosa (setting [16]) was determined as 0.7.

With `CN(C(=O)CN(CCO)CC(=O)N(C)C(C)(C)Cc1ccccc1)C(C)(C)Cc1ccccc1` [Oxethazaine], the fold induction at 50 µM with E. coli (setting [3]) stood at 1.4; with K. pneumoniae (setting [4]), 1.5; in the test with E. cloacae (setting [5]), 1.5; in test [1] (setting [6]), 4.2; in test [2] (setting [7]), 1; in the test with E. faecium (setting [8]), 1. Moreover, the fold induction at 50 µM with P. aeruginosa (setting [9]) was 1.
